Data from PubChem BioAssay AID1845197 (Molecular Pharmacology Branch, DTP, NCI, 2023).
“And” between values parts separate entries of the source, which are not always exact repeats. Equal entries are not always repeated.

Test system: 349418-098-R tumor spheroid viability
Test: Anticancer human tumor 349418-098-R patient-derived lung adenocarcinoma cell line growth inhibition
Details: spheroids with HUVEC and MSC; for viability, T/C: stronger effect = lower value
In short: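 Complex spheroids of malignant cells with endothelial cells and mesenchymal stem cells; agents alone or combined, from near clinical Cmax (or 10 microM if unknown) down in half-log steps, 0.25% DMSO final.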
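Further: spheroids exposed to compound for 7 days before measurement.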
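Wherever viability, T/C is given: percent of vehicle control viability with 100% = DMSO-treated spheroids.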

CNCc1ccc(-c2cc(-c3nc(-c4ccc(S(=O)(=O)C(C)C)cc4)cnc3N)on2)cc1 + COc1cc2c(cc1O)CCNC21CSC2c3c(OC(C)=O)c(C)c4c(c3C(COC1=O)N1C(O)C3Cc5cc(C)c(OC)c(O)c5C(C21)N3C)OCO4
IC50 (curve of first compound, second compound 30 pM): 448 nM | IC50 (curve of first compound, second compound 94.9 pM): 202 nM | IC50 (curve of first compound, second compound 0.0003 µM): 162 nM | IC50 (curve of first compound, second compound 0.000949 µM): < 9.49 nM | IC50 (curve of first compound, second compound 0.003 µM): < 9.49 nM | viability, T/C (second compound 30 pM, first compound 0.00949 µM): 105% | viability, T/C (second compound 30 pM, first compound 0.03 µM): 91.3% | viability, T/C (second compound 30 pM, first compound 0.0949 µM): 87.8% | viability, T/C (second compound 30 pM, first compound 0.3 µM): 69.6% | viability, T/C (second compound 30 pM, first compound 0.949 µM): 14.5% | viability, T/C (second compound 30 pM, first compound 3 µM): 5.77% | viability, T/C (second compound 94.9 pM, first compound 0.00949 µM): 97% | viability, T/C (second compound 94.9 pM, first compound 0.03 µM): 97.5% | viability, T/C (second compound 94.9 pM, first compound 0.0949 µM): 85.4% | viability, T/C (second compound 94.9 pM, first compound 0.3 µM): 31.1% | viability, T/C (second compound 94.9 pM, first compound 0.949 µM): 10.2% | viability, T/C (second compound 94.9 pM, first compound 3 µM): 3.32% | viability, T/C (second compound 0.0003 µM, first compound 0.00949 µM): 91.6% | viability, T/C (second compound 0.0003 µM, first compound 0.03 µM): 93.5% | viability, T/C (second compound 0.0003 µM, first compound 0.0949 µM): 79.5% | viability, T/C (second compound 0.0003 µM, first compound 0.3 µM): 15.6% | viability, T/C (second compound 0.0003 µM, first compound 0.949 µM): 5.43% | viability, T/C (second compound 0.0003 µM, first compound 3 µM): 2.26% | viability, T/C (second compound 0.000949 µM, first compound 0.00949 µM): 0.44% | viability, T/C (second compound 0.000949 µM, first compound 0.03 µM): 0.78% | viability, T/C (second compound 0.000949 µM, first compound 0.0949 µM): 0.51% | viability, T/C (second compound 0.000949 µM, first compound 0.3 µM): 0.68% | viability, T/C (second compound 0.000949 µM, first compound 0.949 µM): 0.41% | viability, T/C (second compound 0.000949 µM, first compound 3 µM): 0.11% | viability, T/C (second compound 0.003 µM, first compound 0.00949 µM): 1.46% | viability, T/C (second compound 0.003 µM, first compound 0.03 µM): 1.27% | viability, T/C (second compound 0.003 µM, first compound 0.0949 µM): 0.93% | viability, T/C (second compound 0.003 µM, first compound 0.3 µM): 1.07% | viability, T/C (second compound 0.003 µM, first compound 0.949 µM): 1.05% | viability, T/C (second compound 0.003 µM, first compound 3 µM): 0.22%

O=C(c1cc(Cc2n[nH]c(=O)c3ccccc23)ccc1F)N1CCN(C(=O)C2CC2)CC1
viability, T/C (compound 0.0949 µM): 103% and 97.1% and 105% | viability, T/C (compound 0.3 µM): 104% and 106% and 113% | viability, T/C (compound 0.949 µM): 101% and 97.6% and 107% | viability, T/C (compound 3 µM): 94.8% and 97.7% and 110% | viability, T/C (compound 9.49 µM): 84.8% and 83.9% and 106% | viability, T/C (compound 30 µM): 56.2% and 53.6% and 74.1% | IC50 (curve of compound): > 30000 nM

[2H]c1nc(C)nc([2H])c1-c1cc(NC[C@@H](C)c2cccc3c(C(=O)NC)ccnc23)ncn1 + Cn1nnc2c(C(N)=O)ncn2c1=O
IC50 (curve of first compound, second compound 1 µM): > 10000 nM | IC50 (curve of first compound, second compound 3.16 µM): > 10000 nM | IC50 (curve of first compound, second compound 10 µM): > 10000 nM | IC50 (curve of first compound, second compound 31.6 µM): > 10000 nM | IC50 (curve of first compound, second compound 100 µM): > 10000 nM | viability, T/C (second compound 1 µM, first compound 0.0316 µM): 98.9% | viability, T/C (second compound 1 µM, first compound 0.1 µM): 103% | viability, T/C (second compound 1 µM, first compound 0.316 µM): 98.7% | viability, T/C (second compound 1 µM, first compound 1 µM): 97.9% | viability, T/C (second compound 1 µM, first compound 3.16 µM): 102% | viability, T/C (second compound 1 µM, first compound 10 µM): 97.3% | viability, T/C (second compound 3.16 µM, first compound 0.0316 µM): 109% | viability, T/C (second compound 3.16 µM, first compound 0.1 µM): 105% | viability, T/C (second compound 3.16 µM, first compound 0.316 µM): 104% | viability, T/C (second compound 3.16 µM, first compound 1 µM): 98.3% | viability, T/C (second compound 3.16 µM, first compound 3.16 µM): 104% | viability, T/C (second compound 3.16 µM, first compound 10 µM): 103% | viability, T/C (second compound 10 µM, first compound 0.0316 µM): 104% | viability, T/C (second compound 10 µM, first compound 0.1 µM): 96.6% | viability, T/C (second compound 10 µM, first compound 0.316 µM): 102% | viability, T/C (second compound 10 µM, first compound 1 µM): 106% | viability, T/C (second compound 10 µM, first compound 3.16 µM): 101% | viability, T/C (second compound 10 µM, first compound 10 µM): 104% | viability, T/C (second compound 31.6 µM, first compound 0.0316 µM): 97.8% | viability, T/C (second compound 31.6 µM, first compound 0.1 µM): 110% | viability, T/C (second compound 31.6 µM, first compound 0.316 µM): 101% | viability, T/C (second compound 31.6 µM, first compound 1 µM): 104% | viability, T/C (second compound 31.6 µM, first compound 3.16 µM): 103% | viability, T/C (second compound 31.6 µM, first compound 10 µM): 104% | viability, T/C (second compound 100 µM, first compound 0.0316 µM): 106% | viability, T/C (second compound 100 µM, first compound 0.1 µM): 109% | viability, T/C (second compound 100 µM, first compound 0.316 µM): 106% | viability, T/C (second compound 100 µM, first compound 1 µM): 106% | viability, T/C (second compound 100 µM, first compound 3.16 µM): 108% | viability, T/C (second compound 100 µM, first compound 10 µM): 110%
